Assay results reported in patent US20170114025A1, “METHODS FOR INHIBITING NECROPTOSIS” (Catalyst Therapeutics Pty Ltd, priority 2014, published 2017).
Read-outs that look alike come from different tables or passages of the source.

How the values were obtained:
[1] = system: MLKL translocation in MDFs; assay: Fractionation and Blue Native PAGE, MLKL membrane translocation; type: cell-based, mouse; conditions: TSQ up to 6 hours, 1 μM test compound, anti-MLKL blots of Blue-Native PAGE
Experimental: MDFs were seeded in 6 well plates (5×10^5 per well) and allowed to attach overnight. Cells were stimulated with TSQ for up to 6 hours in the presence of 1 μM test compound or DMSO control. Cells were harvested by scraping, washed once in PBS and permeabilized in buffer (20 mM Hepes (pH 7.5), 100 mM KCl, 2.5 mM MgCl2, and 100 mM sucrose) containing 0.025% digitonin (BIOSYNTH, Staad, Switzerland) and supplemented with EDTA-free Complete protease inhibitor cocktail (Roche), 2 μM N-ethyl maleimide, and phosphatase inhibitors (5 mM β-glycerophosphate, 1 mM Na Molybdate, 1 mM Na Pyrophosphate and 100 μM Na Fluoride). Permeabilization was confirmed by trypan blue uptake, and cytosolic and crude membrane fractions were separated by centrifugation at 11,000×g for 5 min. Digitonin was added to the cytoplasmic fraction to a final concentration of 1% and the crude membrane fraction was further solubilized in permeabilization buffer+1% digitonin and incubated on ice for 20 min. Crude membrane suspension was centrifuged at 11,000×g for 5 min and the supernatant loaded alongside cytoplasmic fraction on 4-16% Bis-Tris Native PAGE gel (LifeTechnologies). […] MLKL containing complexes were detected by anti-MLKL (3H1) Western blotting as described above.

transformed iBMDMs = assay: Poly(I:C) experiment, RIP1-independent necroptosis; type: cell-based; conditions: poly:IC 50 ug/ml, zVAD 25 uM, 48 hrs
Experimental: Cells were harvested after 48 hrs. Cell death was analysed via propidium iodide staining and flow cytometry.

[2] = system: U937 human histiocytic leukemia cell line; assay: Screening for inhibition of TSQ induced necroptosis, 96 well plate format; type: cell-based; conditions: U-937, 48 h
[3] = system: wild type MDFs (mouse dermal fibroblasts); assay: Cell death assay, TSQ-induced necroptosis in MDFs (PI, flow cytometry); type: cell-based; conditions: 24 h
Description: (§1) Mouse dermal fibroblasts (MDFs) were isolated from three MlkI^−/− mice and three congenic wild type mice and then immortalized by SV40 large T antigen to generate three biologically independent cell lines, as described in Murphy J M, et al. (2013), Immunity 39(3):443-453. Immortalized MDFs were similarly prepared from three Ripk3^−/− mice and congenic wild type mice. MDFs and HEK293T were maintained in Dulbecco's modified Eagle's medium (DMEM) supplemented with 8-10% v/v fetal calf serum (FCS), and 5 μg/mL puromycin for lines stably transduced with inducible expression constructs for MLKL. U937 cells were cultured in RPMI1640 supplemented with 8% v/v FCS. Cell death assays were carried out in 24 well plates, seeding 1×10^5 cells per well. Cells attached over 4 h in the presence of 10 ng/mL doxycycline or 20 ng/mL were then treated with assorted combinations of Necrostatin (50 μM) and Q-VD-OPh (5 μM) 30 min prior to addition of TNF (100 ng/mL) and Smac mimetic (500 nM). After 24 h for MDF cells or 48 h for U937 cells, cells were harvested and PI positive cells (1 μg/mL) quantified using a BD FACSCalibur flow cytometer.

wild-type MDFs = assay: Toxicity of compound in wild-type MDFs; type: cell-based; conditions: triplicate experiments
Description: as §1

[4] = target: T1, mouse MLKL(179-464) pseudokinase domain (Mus musculus, UniProt Q9D2Y4); assay: STD NMR nucleotide competition, mouse MLKL; type: binding; conditions: 200 μM compound, 200 μM nucleotide, 2 μM mouse MLKL(179-464)
T1 construct: made in house; host or cells: Sf21 insect cells
T1 sequence (Q9D2Y4 179-464 isoform Q9D2Y4-2): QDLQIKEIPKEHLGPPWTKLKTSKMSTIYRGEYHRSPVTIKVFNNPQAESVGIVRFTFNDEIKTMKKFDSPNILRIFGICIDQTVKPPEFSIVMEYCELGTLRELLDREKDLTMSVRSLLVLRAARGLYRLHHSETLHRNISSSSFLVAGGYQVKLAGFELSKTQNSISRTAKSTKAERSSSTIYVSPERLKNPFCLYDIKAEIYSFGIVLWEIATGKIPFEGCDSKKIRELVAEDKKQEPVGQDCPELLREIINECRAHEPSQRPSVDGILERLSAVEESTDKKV
Experimental: Nucleotides were dissolved in NMR buffer (20 mM HEPES, pH 7.5, 200 mM NaCl, 90% D2O, 10% H2O) at a final concentration of 200 μM in each sample of STD experiments. Three different samples were prepared for each nucleotide: (1) ATP or ADP with protein buffer added as equivalent volume of protein containing samples (2) ATP or ADP with MLKL pseudokinase domain at a final concentration of 2 μM (3) ATP or ADP with MLKL pseudokinase domain (2 μM) with test compound at 200 μM. […] Saturation of the protein resonances was achieved by a 4 s train of Gaussian pulses centred at −0.5 ppm. For the reference spectra, a similar saturation pulse was applied at a frequency centred 20,000 Hz off-resonance. A 15 ms T2-spin-lock period was employed before acquisition to allow the residual protein signal to decay. NMR data were processed in TOPSPIN version 3.2 (Bruker BioSpin).

CN(c1ccc(NC(=O)Nc2ccc(OC(F)(F)F)cc2)cc1)c1ccnc(Nc2cccc(S(N)(=O)=O)c2)n1 [Compound 1, 3-((4-(methyl(4-(3-(4-(trifluoromethoxy)phenyl)ureido)phenyl)amino)pyrimidin-2-yl)amino)benzenesulfonamide]
MLKL translocation to the membrane fraction [1]: retarded translocation to the membrane fraction | inhibition of Poly(I:C) and zVAD induced necroptosis (transformed iBMDMs): inhibits Poly(I:C) and zVAD induced necroptosis | IC50 ([2]; read-out: Cell based assay Average): 0.0694 µM | IC50 ([2]; read-out: Cell based assay IC50): 0.0254 µM | IC50 ([3]; Mus musculus, Fibroblast, read-out: IC50, rescue from TSQ-induced necroptosis): ~0.5 µM | cells rescued from TSQ-induced necroptosis ([3]; wt MDFs): ~50% | concentrations at which toxicity induces death of wild-type MDFs (wild-type MDFs): ≥ 5 µM | competition with ATP and ADP for binding (STD NMR) [4]: can compete with (i) ATP and (ii) ADP
